From US10471094B2, “Methods for reducing ischemia-reperfusion injury via targeted control of blood gases” (Cedars-Sinai Medical Center, priority 2013, dated 2019)

Tested on: Canines
Test: Canine ischemia/reperfusion (I/R) protocol, 3 hours no-flow LAD occlusion then reperfusion, MRI at week 8
Assay type: in vivo
Excerpt: Canines (n=9) underwent left thoracotomy at the 4th intercostal space and a hydraulic occluder was secured around the left-anterior descending coronary artery after the first principal diagonal. Subsequently a Doppler flow probe was affixed distal to the hydraulic occluder and animals were allowed to recover for 7 days. Following recovery, animals were subjected to ischemia/reperfusion (I/R) protocol and studied with magnetic resonance imaging. The ischemia protocol consisted of inflicting no-flow ischemia by inflating the hydraulic occlude (confirmed by the Doppler flow velocity) for 3 hours. Subsequently all animals were reperfused by deflation of the hydraulic occluder.

[1] = 100% O2 versus room air during reperfusion, week 8

## O=O [100% O2, oxygen]
[1]
  chronic scar size larger versus animals breathing room air during reperfusion: approximately 25%
  left ventricular ejection fraction (LVEF) reduced versus animals breathing room air during reperfusion: 12%
Gas breathed during reperfusion, 3.0 T MRI, week 8 post I/R injury, left-ventricular ejection fraction
  LVEF at week 8 post MI: 39.7 +/− 4.9
Gas breathed during reperfusion, 3.0 T MRI, week 8 post I/R injury, scar volume as percentage of left ventricular volume
  Scar Volume at week 8 post MI (% LV): 15.0 +/− 3.8 % LV
